The source of these data is patent US8648079B2, “Heterocyclic compounds” (Takeda Pharmaceutical Company Limited, priority 2011, dated 2014).

Each structure is given as a SMILES string.

T1 sequence (Q9Y6A2 whole entry): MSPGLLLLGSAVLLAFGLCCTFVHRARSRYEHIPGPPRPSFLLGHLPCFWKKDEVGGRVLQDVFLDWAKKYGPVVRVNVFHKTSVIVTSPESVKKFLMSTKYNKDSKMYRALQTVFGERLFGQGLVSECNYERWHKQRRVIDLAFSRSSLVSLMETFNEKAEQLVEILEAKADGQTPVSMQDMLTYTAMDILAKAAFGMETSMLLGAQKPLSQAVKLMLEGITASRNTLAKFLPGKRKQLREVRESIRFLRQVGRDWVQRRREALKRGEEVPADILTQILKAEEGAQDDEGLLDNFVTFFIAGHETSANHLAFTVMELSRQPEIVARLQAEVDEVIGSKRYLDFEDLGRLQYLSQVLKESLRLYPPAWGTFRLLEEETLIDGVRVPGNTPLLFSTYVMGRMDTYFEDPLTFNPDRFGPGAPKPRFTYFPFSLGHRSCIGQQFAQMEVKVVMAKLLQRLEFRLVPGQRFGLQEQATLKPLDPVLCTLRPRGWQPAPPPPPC

One assay concerns the target T1, human CH24H (Homo sapiens, UniProt Q9Y6A2).
T1 construct: Using Full-Length Mammalian Gene Collection No. 4819975 (Invitrogen) as a template; made in house; host or cells: FreeStyle 293-F cells (transient transfection with pcDNA3.1(+)/hCH24H); crude lysate supernatant
Briefly: Measurement of CH24H inhibitory activity (24-HC produced from [14C] cholesterol by human CH24H lysate). Conditions: 1 μM test compound, [14C] cholesterol 15 μM, 37° C., 5 hr, read-out: Inhibitory rate (%) at 1 μM. It counts as biochemical. As for the experimental part: The expression of human CH24H was performed using FreeStyle 293 Expression System (Invitrogen). According to the manual attached to FreeStyle 293 Expression System and using the plasmid DNA (pcDNA3.1(+)/hCH24H) for human CH24H expression constructed in Experimental Example 1, a transient expression using FreeStyle 293-F cell was performed. After transfection, the cells were cultured with shaking at 37° C., 8% CO2, 125 rpm for 2 days. The cells were collected by centrifugation, and suspended in a buffer for suspension (100 mM potassium phosphate (pH 7.4), 0.1 mM EDTA, 1 mM DTT, 20% Glycerol). The suspended product was disrupted by a polytron homogenizer (manufactured by Kinematica), and centrifuged at 9000×g for 10 min, and the supernatant was collected. The collected supernatant was cryopreserved (−80° C.) as a human CH24H lysate standard product.
For the measurement of CH24H inhibitory activity, using the human CH24H lysate prepared in Experimental Example 2, the amount of 24-HC produced from cholesterol by catalysis of CH24H was measured in the presence of a test compound, and the amount was compared with that in the absence of the test compound. That is, a test compound solution at various concentrations were mixed with a reaction buffer (50 mM potassium phosphate containing 0.1% BSA and Complete, EDTA-free protease inhibitor cocktail, pH 7.4) and human CH24H lysate. Then, [^14C] cholesterol (53 mCi/mmol specific activity, 15 μM) was added, and CH24H reaction was performed at 37° C. for 5 hr. After completion of the reaction, a quenching solution consisting of chloroform/methanol/distillation water (2:2:1 v/v) was added, and the resulting 24-HC was extracted by shaking. The extract was applied to silica gel thin layer chromatography (ethyl acetate:toluene=4:6), and the obtained ^14C-24HC fraction was measured with BAS2500 (Fujifilm Corporation).
The inhibitory rate (%) was calculated from the ratio of radioactivity in the presence of a test compound relative to the radioactivity in the absence of the test compound.
For the compound `O=C(c1ccccc1-c1cnco1)N1CCC(O)(Cc2ccccc2)CC1` [Example 82, (4-benzyl-4-hydroxypiperidin-1-yl)(2-(1,3-oxazol-5-yl)phenyl)methanone], the inhibition at 1 µM turned out to be 87%.
Consider `Cc1noc(-c2ccncc2)c1C(=O)N1CCC(O)(Cc2ccccc2)CC1` [Example 2, (4-benzyl-4-hydroxypiperidin-1-yl)(3-methyl-5-(pyridin-4-yl)-1,2-oxazol-4-yl)methanone], for which the inhibition at 1 µM came out at 90%.
The same measure, in the same setting: next, `Cc1ccc(-c2ccncc2)c(C(=O)N2CCC(O)(Cc3ccccc3)CC2)c1` [Example 1, (4-benzyl-4-hydroxypiperidin-1-yl)(5-methyl-2-(pyridin-4-yl)phenyl)methanone]: 92%.
On the same count and under the same terms, the figure for `O=C(c1cccnc1-c1ccncn1)N1CCC(O)(Cc2ccccc2)CC1` [Example 54, (4-benzyl-4-hydroxypiperidin-1-yl)(2-(pyrimidin-4-yl)pyridin-3-yl)methanone] is 90%; for `O=C(c1c(C(F)(F)F)n[nH]c1-c1ccncc1)N1CCC(O)(Cc2ccccc2)CC1` [Example 41, (4-benzyl-4-hydroxypiperidin-1-yl)(5-(pyridin-4-yl)-3-(trifluoromethyl)-1H-pyrazol-4-yl)methanone] it is 93%; for `O=C(c1ccccc1-c1cnco1)N1CCC(O)(Cc2ccc(F)cc2F)CC1` [Example 102, (4-(2,4-difluorobenzyl)-4-hydroxypiperidin-1-yl)(2-(1,3-oxazol-5-yl)phenyl)methanone] it is 89%.
Take `O=C(c1cccnc1-c1ccncc1)N1CCC(O)(Cc2ccc(F)cc2F)CC1` [Example 87, 2,4′-bipyridin-3-yl(4-(2,4-difluorobenzyl)-4-hydroxypiperidin-1-yl)methanone]: the inhibition at 1 µM was 89%.
On the same count and under the same terms, the figure for `Cc1ccc(-c2ccncc2)c(C(=O)N2CCC(O)(C(C)C)CC2)c1` [Example 5, (4-hydroxy-4-isopropylpiperidin-1-yl)(5-methyl-2-(pyridin-4-yl)phenyl)methanone] is 70%; for `Cn1ncc(-c2ccncc2)c1C(=O)N1CCC(O)(Cc2ccccc2)CC1` [Example 32, (4-benzyl-4-hydroxypiperidin-1-yl)(1-methyl-4-(pyridin-4-yl)-1H-pyrazol-5-yl)methanone] it is 92%; for `COc1ccc(CC2(O)CCN(C(=O)c3cccnc3-c3ccncc3)CC2)cc1` [Example 97, 2,4′-bipyridin-3-yl(4-hydroxy-4-(4-methoxybenzyl)piperidin-1-yl)methanone] it is 87%.
On to `O=C(c1ccc(F)cc1-c1ccncc1)N1CCC(O)(Cc2ccccn2)CC1` [Example 30, (4-fluoro-2-(pyridin-4-yl)phenyl)(4-hydroxy-4-(pyridin-2-ylmethyl)piperidin-1-yl)methanone], for which the inhibition at 1 µM worked out at 91%.
In the case of `O=C(c1scnc1-c1ccncc1)N1CCC(O)(Cc2ccccc2)CC1` [Example 26, (4-benzyl-4-hydroxypiperidin-1-yl)(4-(pyridin-4-yl)-1,3-thiazol-5-yl)methanone], the inhibition at 1 µM was 92%.
The same measure, in the same setting: next, `O=C(c1ccccc1-c1ccncn1)N1CCC(O)(Cc2ccccc2)CC1` [Example 14, (4-benzyl-4-hydroxypiperidin-1-yl)(2-(pyrimidin-4-yl)phenyl)methanone]: 92%; `O=C(c1ccccc1-c1ccncn1)N1CCC(O)(Cc2ccccn2)CC1` [Example 34, (4-hydroxy-4-(pyridin-2-ylmethyl)piperidin-1-yl)(2-(pyrimidin-4-yl)phenyl)methanone]: 90%; `O=C(c1ccc(F)cc1-c1ccncn1)N1CCC(O)(Cc2ccccn2)CC1` [Example 63, (4-fluoro-2-(pyrimidin-4-yl)phenyl)(4-hydroxy-4-(pyridin-2-ylmethyl)piperidin-1-yl)methanone]: 82%.
`O=C(c1cccnc1-c1ccncn1)N1CCC(O)(Cc2ccc(F)cc2)CC1` [Example 92, (4-(4-fluorobenzyl)-4-hydroxypiperidin-1-yl)(2-(pyrimidin-4-yl)pyridin-3-yl)methanone]: the inhibition at 1 µM is 88%.
Consider `O=C(c1cc(F)c(F)cc1-c1ccncn1)N1CCC(O)(Cc2ccccn2)CC1` [Example 56, (4,5-difluoro-2-(pyrimidin-4-yl)phenyl)(4-hydroxy-4-(pyridin-2-ylmethyl)piperidin-1-yl)methanone], for which the inhibition at 1 µM was determined as 90%.
With `O=C(c1cccnc1-c1ccncn1)N1CCC(O)(Cc2ccc(F)cc2F)CC1` [Example 105, (4-(2,4-difluorobenzyl)-4-hydroxypiperidin-1-yl)(2-(pyrimidin-4-yl)pyridin-3-yl)methanone], the inhibition at 1 µM stood at 95%.
As for `O=C(c1cccnc1-c1ccncc1)N1CCC(O)(Cc2ccccc2)CC1` [Example 44, (4-benzyl-4-hydroxypiperidin-1-yl)(2,4′-bipyridin-3-yl)methanone], the inhibition at 1 µM is 95%.
In the case of `O=C(c1cc(F)ccc1-c1ccncn1)N1CCC(O)(Cc2ccccn2)CC1` [Example 58, (5-fluoro-2-(pyrimidin-4-yl)phenyl)(4-hydroxy-4-(pyridin-2-ylmethyl)piperidin-1-yl)methanone], the inhibition at 1 µM was 84%.
As for `COC1(Cc2ccccc2)CCN(C(=O)c2cc(C)ccc2-c2ccncc2)CC1` [Example 59, (4-benzyl-4-methoxypiperidin-1-yl)(5-methyl-2-(pyridin-4-yl)phenyl)methanone], the inhibition at 1 µM worked out at 83%.
In the case of `O=C(c1c(-c2ccncc2)ccc2c1OCO2)N1CCC(O)(Cc2ccccc2)CC1` [Example 9, (4-benzyl-4-hydroxypiperidin-1-yl)(5-(pyridin-4-yl)-1,3-benzodioxol-4-yl)methanone], the inhibition at 1 µM was determined as 87%.
Same read-out and setting: the figure for `O=C(c1ncsc1-c1ccncc1)N1CCC(O)(Cc2ccccc2)CC1` [Example 25, (4-benzyl-4-hydroxypiperidin-1-yl)(5-(pyridin-4-yl)-1,3-thiazol-4 yl)methanone] is 94%; for `N#Cc1ccc(CC2(O)CCN(C(=O)c3cccnc3-c3ccncc3)CC2)cc1` [Example 70, 4-((1-(2,4′-bipyridin-3-ylcarbonyl)-4-hydroxypiperidin-4-yl)methyl)benzonitrile] it is 89%.
Same read-out and setting: next, `Cc1nc(-c2ccncn2)c(C(=O)N2CCC(O)(Cc3ccccc3)CC2)s1` [Example 60, (4-benzyl-4-hydroxypiperidin-1-yl)(2-methyl-4-(pyrimidin-4-yl)-1,3-thiazol-5-yl)methanone]: 82%.
`O=C(c1cccnc1-c1ccncc1)N1CCC(O)(Cc2ccc(F)cc2)CC1` [Example 67, 2,4′-bipyridin-3-yl(4-(4-fluorobenzyl)-4-hydroxypiperidin-1-yl)methanone]: the inhibition at 1 µM was determined as 89%.
Consider `O=C(c1cccnc1-c1ccncc1)N1CCC(O)(Cc2ccc(F)c(F)c2)CC1` [Example 86, 2,4′-bipyridin-3-yl(4-(3,4-difluorobenzyl)-4-hydroxypiperidin-1-yl)methanone], for which the inhibition at 1 µM is 89%.
On to `Cc1ccc(-c2ccncc2)c(C(=O)N2CCC(O)(CC3=NCCS3)CC2)c1` [Example 39, (4-(4,5-dihydro-1,3-thiazol-2-ylmethyl)-4-hydroxypiperidin-1-yl)(5-methyl-2-(pyridin-4-yl)phenyl)methanone], for which the inhibition at 1 µM stood at 90%.

A further assay concerns APP/PS1 double transgenic mouse. Briefly: Y-maze test using APP/PS1 double transgenic mouse (spontaneous alternation behavior). It counts as in vivo. Conditions: 10 mg/kg orally once a day, Y-maze at 16 hours after the 13th administration. On the procedure: Animals used were 3-month-old female APP/PS1 double transgenic mice (10-15 mice/group). A test compound was suspended in a 0.5% aqueous methylcellulose [133-14255 WAKO] solution (1 mg/mL). The body weight of the mice was measured, and the solution was forcibly administered orally and repeatedly once a day for 14 days. At 16 hours after the 13th administration, spontaneous alternation behavior in Y-maze test was evaluated. Using a particular arm of a Y-shaped test apparatus as the starting point, the frequency of moving to a different arm was counted for 5 min. The first two times of entry were excluded from the total number of entry. In addition, the mice that entered less than 10 times in total were excluded. Movement to an arm different from the arm into which the mouse entered last but one was considered an alternation behavior, and the ratio to the total number of moving was calculated as a spontaneous alternation behavior rate. As comparison subjects, a control group (test compound-non treatment group) and a control group in wild-type mice were used.
Take `O=C(c1cccnc1-c1ccncn1)N1CCC(O)(Cc2ccc(F)cc2)CC1` [Example 92, (4-(4-fluorobenzyl)-4-hydroxypiperidin-1-yl)(2-(pyrimidin-4-yl)pyridin-3-yl)methanone]: the “Spontaneous alternation behavior rate (%)” value amounted to 62%.
The same measure, in the same setting: the figure for `O=C(c1cccnc1-c1ccncc1)N1CCC(O)(Cc2ccccc2)CC1` [Example 44, (4-benzyl-4-hydroxypiperidin-1-yl)(2,4′-bipyridin-3-yl)methanone] is 71%.

The same assay, now with this note: 30 mg/kg orally once a day, Y-maze at 16 hours after the 13th administration.
Regarding `O=C(c1cccnc1-c1ccncn1)N1CCC(O)(Cc2ccc(F)cc2)CC1` [Example 92, (4-(4-fluorobenzyl)-4-hydroxypiperidin-1-yl)(2-(pyrimidin-4-yl)pyridin-3-yl)methanone], the “Spontaneous alternation behavior rate (%)” value was 72%.
Consider `O=C(c1cccnc1-c1ccncc1)N1CCC(O)(Cc2ccccc2)CC1` [Example 44, (4-benzyl-4-hydroxypiperidin-1-yl)(2,4′-bipyridin-3-yl)methanone], for which the “Spontaneous alternation behavior rate (%)” value is recorded as 71%.
